Assay results as given in publication PMC7093396 (Scientific Reports, 2020).
Values after ≈ are worked out from the molar mass of the structure shown.

Key:
B. bacteriovorus HD100 = tested on: T1, B. bacteriovorus HD100; assay: microbe, parasite or virus in culture; parameters: species or system B. bacteriovorus HD100 with E. coli BW25113 prey; Predatory growth on E. coli prey, OD600 reduction, Gompertz-fit MIC by linear regression at PPR 0.02; settings: Escherichia coli, HD100, 24 h; co-culture with E. coli BW25113 prey, theoretical MIC at PPR 0.02
T1 construct: HD100
Protocol: Two-fold serial dilutions of antibiotics (Table S6) were made along the rows of 96-well plates (BRANDplates pureGrade^TM S, no. 781662) in 100 µL Ca/HEPES buffer (5.94 g/L HEPES free acid, 0.284 g/L calcium chloride 2·H2O, adjusted to pH 7.6 with NaOH), including controls (no antibiotic present). B. bacteriovorus cultures were diluted by a factor of 25 in Ca/HEPES buffer. B. bacteriovorus two-fold serial dilutions were prepared in a new sterile 96-well plate along the column line (using as diluent a suspension of heat-inactivated B. bacteriovorus), including controls (no viable B. bacteriovorus present). Fifty µL of these dilution series were transferred from each well of the latter plate to the corresponding wells of plates with antibiotic dilution series. Subsequently, 50 µL of an E. coli BW25113 overnight culture grown in YPSC broth was added to each plate well. At this point, which corresponds to time zero, the blank was determined by measuring the OD600 of cell suspensions in a plate reader (TECAN Infinite 200 Pro). Final OD600 measurements were carried out after an incubation of 24 hours at 29 °C under shaking conditions (300 rpm, 3 mm throw). The number of E. coli cells was estimated by reading the OD600 of the overnight culture prior to the beginning of the assay. The number of viable B. bacteriovorus cells was estimated by plating in double layer YPSC agar plates as explained elsewhere. Following an incubation time of three days at 29 °C, the number of B. bacteriovorus cells in the initial inoculation culture was estimated by counting plaque forming units (PFU). Enumeration of B. bacteriovorus by plaques count ensures that only viable cells are counted and, in our experience, is preferable over other methods based on microscopy and/or fluorescence. Pictures of plaques were acquired by the aid of a plaque visualization chamber, specially developed in this study for this purpose (Fig. S9). All absorbance values were subtracted of the related blanks. Then, absorbance values of test samples (B. bacteriovorus co-cultures) were subtracted from the control values (E. coli without B. bacteriovorus) and plotted in graph against the logarithm of antibiotic concentrations. The resulting Δ curve is an indication of B. bacteriovorus growth. Data was expressed as percentage of growth and plotted in a graph of log(inhibitor) vs. response. The minimal inhibitory concentration (MIC) value was defined as the concentration of antibiotic that prevent B. bacteriovorus growth and were calculated by fitting B. bacteriovorus growth inhibition curves with a Gompertz modified equation[15] (using GraphPad Prism 5). […] Direct cell growth measurements of B. bacteriovorus upon prey bacteria can be estimated by reduction of the optical density at 600 nm (OD600) (i.e. the loss of culture turbidity by B. bacteriovorus-induced lysis of prey cells). In this study, we designed a 96-well based method for the determination of antibiotic MICs for B. bacteriovorus. B. bacteriovorus HD100 cells were added to an E. coli culture and the reduction of OD600 measured in absence and presence of different concentrations of antibiotics. Assays were conducted in a solution of Ca/HEPES buffer and the exhausted medium transferred with the E. coli overnight culture and the B. bacteriovorus dilution. Therefore, E. coli cells were in the stationary phase and their growth during the assays was negligible. […] MIC values are dependent on the initial PPR used in the assay, as standard MIC assays are dependent on the initial bacterial concentration. However, B. bacteriovorus numbers and therefore, the initial PPR can be estimated reliably only after the assay by plating in double layer agar plates. The relation between initial PPR and MIC values was then investigated by adding different numbers of B. bacteriovorus cells to the fixed number of E. coli prey cells in parallel replicated experiments (on different rows of the same plate containing replicated antibiotic serial dilutions). […]

E. coli BW25113 = tested on: T2, E. coli BW25113; assay: microbe, parasite or virus in culture; parameters: Broth dilution growth at OD600 in Ca/HEPES:YPSC, 29 °C, Gompertz-fit MIC; settings: Escherichia coli, BW25113, 24 h; Ca/HEPES:YPSC, 29 °C, non-standard MIC
T2 construct: BW25113
Protocol: Serial antibiotic dilutions in 100 µL Ca/HEPES were made along the rows of 96-well plates including controls without antibiotic. E. coli BW25113 cells from an overnight culture were washed and re-suspended in Ca/HEPES buffer to a final OD600 of 0.024. Aliquots of 50 µL of this E. coli suspension and 50 µL of a fresh YPSC broth were added to the wells of these plates and the blank measured at 600 nm. Final OD600 measurements were carried out after an incubation of 24 hours at 29 °C under shaking conditions. Data is shown as percentage of growth and plotted in a graph against the logarithm of antibiotic concentration. MIC values were calculated by fitting data with a Gompertz modified equation[15] (using GraphPad Prism 5). […] Antibiotics characterized by a high B. bacteriovorus/E. coli MIC ratio, such as amikacin, kanamycin, gentamicin and aztreonam (Table 1), are of particular interest for a B. bacteriovorus based co-therapy against E. coli infections.

Molecule `NCC[C@H](O)C(=O)N[C@@H]1C[C@H](N)[C@@H](O[C@H]2O[C@H](CN)[C@@H](O)[C@H](O)[C@H]2O)[C@H](O)[C@H]1O[C@H]1O[C@H](CO)[C@@H](O)[C@H](N)[C@H]1O` [Amikacin] has an MIC (B. bacteriovorus HD100) of 0.7 ± 0.02 µg/mL (≈ 1.2 µM) and an MIC (E. coli BW25113) of 0.06 µg/mL (≈ 0.102 µM).
With `CC1(C)S[C@@H]2[C@H](NC(=O)[C@H](N)c3ccccc3)C(=O)N2[C@H]1C(=O)O` [Ampicillin] the MIC (B. bacteriovorus HD100) was 1.3 ± 0.2 µg/mL (≈ 3.72 µM) and the MIC (E. coli BW25113) was 5.4 µg/mL (≈ 15.5 µM).
In the case of `C[C@H]1[C@H](NC(=O)/C(=N\OC(C)(C)C(=O)O)c2csc(N)n2)C(=O)N1S(=O)(=O)O` [Aztreonam], the MIC (B. bacteriovorus HD100) is reported as 41 ± 4 µg/mL (≈ 94.2 µM) and the MIC (E. coli BW25113) is reported as 5.7 µg/mL (≈ 13.1 µM).
With `N[C@@H](C(=O)N[C@@H]1C(=O)N2C(C(=O)O)=C(Cl)CS[C@H]12)c1ccccc1` [Cefaclor] the MIC (B. bacteriovorus HD100) was 18 ± 2 µg/mL (≈ 48.9 µM) and the MIC (E. coli BW25113) was 10 µg/mL (≈ 27.2 µM).
In the case of `Cc1nnc(SCC2=C(C(=O)O)N3C(=O)[C@@H](NC(=O)Cn4cnnn4)[C@H]3SC2)s1` [Cefazolin], the MIC (B. bacteriovorus HD100) is reported as 0.51 ± 0.07 µg/mL (≈ 1.12 µM) and the MIC (E. coli BW25113) is reported as 2 µg/mL (≈ 4.4 µM).
With `CCN1CCN(C(=O)N[C@@H](C(=O)N[C@@H]2C(=O)N3C(C(=O)O)=C(CSc4nnnn4C)CS[C@H]23)c2ccc(O)cc2)C(=O)C1=O` [Cefoperazone] the MIC (B. bacteriovorus HD100) was 1.3 ± 0.3 µg/mL (≈ 2.01 µM) and the MIC (E. coli BW25113) was 0.6 µg/mL (≈ 0.929 µM).
`CC(C)(O/N=C(\C(=O)N[C@@H]1C(=O)N2C(C(=O)[O-])=C(C[n+]3ccccc3)CS[C@H]12)c1csc(N)n1)C(=O)O` [Ceftazidime] showed an MIC (B. bacteriovorus HD100) of 7.8 ± 0.4 µg/mL (≈ 14.3 µM) and an MIC (E. coli BW25113) of 19 µg/mL (≈ 34.8 µM).
In the case of `O=C(N[C@H](CO)[C@H](O)c1ccc([N+](=O)[O-])cc1)C(Cl)Cl` [Chloramphenicol], the MIC (B. bacteriovorus HD100) is reported as 0.16 µg/mL (≈ 0.495 µM) and the MIC (E. coli BW25113) is reported as 10 µg/mL (≈ 30.9 µM).
Work on `O=C(O)c1cn(C2CC2)c2cc(N3CCNCC3)c(F)cc2c1=O` [Ciprofloxacin] yielded an MIC (B. bacteriovorus HD100) of 0.31 ± 0.04 µg/mL (≈ 0.936 µM) and an MIC (E. coli BW25113) of 0.13 µg/mL (≈ 0.392 µM).
In the case of `CNC(C)[C@@H]1CC[C@@H](N)[C@@H](O[C@H]2[C@H](O)[C@@H](O[C@H]3OC[C@](C)(O)[C@H](NC)[C@H]3O)[C@H](N)C[C@@H]2N)O1` (stereo partly shown) [Gentamicin], the MIC (B. bacteriovorus HD100) is reported as 0.06 µg/mL (≈ 0.126 µM) and the MIC (E. coli BW25113) is reported as 0.0084 µg/mL (≈ 0.0176 µM).
With `NC[C@H]1O[C@H](O[C@H]2[C@H](O)[C@@H](O[C@H]3O[C@H](CO)[C@@H](O)[C@H](N)[C@H]3O)[C@H](N)C[C@@H]2N)[C@H](O)[C@@H](O)[C@@H]1O` [Kanamycin] the MIC (B. bacteriovorus HD100) was 0.69 ± 0.06 µg/mL (≈ 1.42 µM) and the MIC (E. coli BW25113) was 0.081 µg/mL (≈ 0.167 µM).
`C[C@H]1COc2c(N3CCN(C)CC3)c(F)cc3c(=O)c(C(=O)O)cn1c23` [Levofloxacin] was tested, and the MIC (B. bacteriovorus HD100) was 0.23 ± 0.02 µg/mL (≈ 0.636 µM) and the MIC (E. coli BW25113) was 0.064 µg/mL (≈ 0.177 µM).
`CCC[C@@H]1C[C@@H](C(=O)N[C@@H]([C@H]2O[C@H](SC)[C@H](O)[C@@H](O)[C@H]2O)[C@@H](C)O)N(C)C1` [Lincomycin] was tested, and the MIC (B. bacteriovorus HD100) was 7.9 ± 0.9 µg/mL (≈ 19.4 µM).
Molecule `C[C@@H](O)[C@H]1C(=O)N2C(C(=O)O)=C(S[C@@H]3CN[C@H](C(=O)N(C)C)C3)[C@H](C)[C@H]12` [Meropenem] has an MIC (B. bacteriovorus HD100) of 0.42 ± 0.06 µg/mL (≈ 1.1 µM) and an MIC (E. coli BW25113) of 0.14 µg/mL (≈ 0.365 µM).
With `CC1(C)S[C@@H]2[C@H](NC(=O)Cc3ccccc3)C(=O)N2[C@H]1C(=O)O` [Penicillin G] the MIC (B. bacteriovorus HD100) was 3.4 ± 0.5 µg/mL (≈ 10.2 µM) and the MIC (E. coli BW25113) was 19 µg/mL (≈ 56.8 µM).
Work on `CCN1CCN(C(=O)N[C@@H](C(=O)N[C@@H]2C(=O)N3[C@@H]2SC(C)(C)[C@@H]3C(=O)O)c2ccccc2)C(=O)C1=O` [Piperacillin] yielded an MIC (B. bacteriovorus HD100) of 2.5 ± 0.5 µg/mL (≈ 4.83 µM) and an MIC (E. coli BW25113) of 122 µg/mL (≈ 236 µM).
Molecule `COc1cc(Cc2cnc(N)nc2N)cc(OC)c1OC` [TMP, trimethoprim] has an MIC (B. bacteriovorus HD100) of 223 ± 24 µg/mL (≈ 768 µM).
`CN(C)[C@@H]1C(O)=C(C(N)=O)C(=O)[C@@]2(O)C(O)=C3C(=O)c4c(O)cccc4[C@@](C)(O)[C@H]3C[C@@H]12` [Tetracycline] gave an MIC (B. bacteriovorus HD100) of 1.7 ± 0.2 µg/mL (≈ 3.83 µM) and an MIC (E. coli BW25113) of 4.8 µg/mL (≈ 10.8 µM).
In the case of `CN(C)c1cc(NC(=O)CNC(C)(C)C)c(O)c2c1C[C@H]1C[C@H]3[C@H](N(C)C)C(O)=C(C(N)=O)C(=O)[C@@]3(O)C(O)=C1C2=O` [Tigecycline], the MIC (B. bacteriovorus HD100) is reported as 0.59 ± 0.01 µg/mL (≈ 1.01 µM) and the MIC (E. coli BW25113) is reported as 2.3 µg/mL (≈ 3.93 µM).
`CN[C@H](CC(C)C)C(=O)N[C@H]1C(=O)N[C@@H](CC(N)=O)C(=O)N[C@H]2C(=O)N[C@H]3C(=O)N[C@H](C(=O)N[C@H](C(=O)O)c4cc(O)cc(O)c4-c4cc3ccc4O)[C@H](O)c3ccc(c(Cl)c3)Oc3cc2cc(c3O[C@@H]2O[C@H](CO)[C@@H](O)[C@H](O)[C@H]2O[C@H]2C[C@](C)(N)[C@H](O)[C@H](C)O2)Oc2ccc(cc2Cl)[C@H]1O` [Vancomycin] gave an MIC (B. bacteriovorus HD100) of 16 ± 1 µg/mL (≈ 11 µM).
